Target: T1, MAGL (Homo sapiens, UniProt Q99685)
T1 sequence (Q99685 1-303): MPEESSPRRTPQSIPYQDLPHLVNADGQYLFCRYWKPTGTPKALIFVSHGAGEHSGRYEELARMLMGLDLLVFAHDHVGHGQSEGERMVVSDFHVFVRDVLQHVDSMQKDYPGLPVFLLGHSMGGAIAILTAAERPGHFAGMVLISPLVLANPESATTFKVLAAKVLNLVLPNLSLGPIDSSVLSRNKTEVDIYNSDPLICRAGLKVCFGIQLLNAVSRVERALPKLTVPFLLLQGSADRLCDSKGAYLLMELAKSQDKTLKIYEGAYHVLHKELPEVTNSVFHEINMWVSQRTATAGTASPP
Test: 2-AG assay (MAGL inhibitory activity; hydrolysis of 2-arachidonoylglycerol to arachidonic acid followed by mass spectrometry)
Format: biochemical
Settings: 15 min preincubation at RT, 8 μM 2-arachidonoylglycerol, 30 min at RT, RapidFire MS readout
Procedure: Compounds were profiled for MAGL inhibitory activity by determining the enzymatic activity by following the hydrolysis of the natural substrate 2-arachidonoylglycerol (2-AG) resulting in arachidonic acid, which can be followed by mass spectrometry. This assay is hereinafter abbreviated “2-AG assay”.
The 2-AG assay was carried out in 384 well assay plates (PP, Greiner Cat #784201) in a total volume of 20 μL. Compound dilutions were made in […] (VWR Chemicals 23500.297) in a polypropylene plate in 3-fold dilution steps to give a final concentration range in the assay from 12.5 μM to […]. 0.25 μL compound dilutions (100% DMSO) were added to 9 μL MAGL in assay buffer (50 mM TRIS (GIBCO, 15567-027), 1 mM EDTA (Fluka, 03690-100 mL), 0.010 (v/v) Tween. After shaking, the plate was incubated for 15 min at RT. To start the reaction, 10 μL 2-arachidonoylglycerol in assay buffer was added. The final concentrations in the assay was […] and 8 μM 2-arachidonoylglyerol. After shaking and 30 min incubation at RT, the reaction was quenched by the addition of 40 μL of ACN containing 4 μM of d8-arachidonic acid. The amount of arachidonic acid was traced by an online SPE system (Agilent Rapidfire) coupled to a triple quadrupole mass spectrometer (Agilent 6460). A C18 SPE cartridge (G9205A) was used in an ACN/water liquid setup. The mass spectrometer was operated in negative electrospray mode following the mass transitions 303.1→259.1 for arachidonic acid and 311.1→267.0 for d8-arachidonic acid. The activity of the compounds was calculated based on the ratio of intensities [arachidonic acid/d8-arachidonic acid].

Compound | IC50 [nM]
O=C(c1cccc(-c2ccnnc2)c1Cl)N1CCN2C[C@@H](c3ccc(F)c(Cl)c3)OC[C@@H]2C1 [Example 29, [(3R,9aS)-3-(3-chloro-4-fluoro-phenyl)-3,4,6,7,9,9a-hexahydro-1H-pyrazino[2,1-c][1,4]oxazin-8-yl]-(2-chloro-3-pyridazin-4-yl-phenyl)methanone] | 202
O=C(c1cccc(-c2ccccn2)c1Cl)N1CCN2C[C@@H](c3ccc(F)c(Cl)c3)OC[C@@H]2C1 [Example 30, [(3R,9aS)-3-(3-chloro-4-fluoro-phenyl)-3,4,6,7,9,9a-hexahydro-1H-pyrazino[2,1-c][1,4]oxazin-8-yl]-[2-chloro-3-(2-pyridyl)phenyl]methanone] | 49.2
O=C(c1cccc(-c2cccnn2)c1Cl)N1CCN2C[C@@H](c3ccc(F)c(Cl)c3)OC[C@@H]2C1 [Example 31, [(3R,9aS)-3-(3-chloro-4-fluoro-phenyl)-3,4,6,7,9,9a-hexahydro-1H-pyrazino[2,1-c][1,4]oxazin-8-yl]-(2-chloro-3-pyridazin-3-yl-phenyl)methanone] | 173
Cc1ccnnc1-c1cccc(C(=O)N2CCN3C[C@@H](c4ccc(F)c(Cl)c4)OC[C@@H]3C2)c1Cl [Example 34, [(3R,9aS)-3-(3-chloro-4-fluoro-phenyl)-3,4,6,7,9,9a-hexahydro-1H-pyrazino[2,1-c][1,4]oxazin-8-yl]-[2-chloro-3-(4-methylpyridazin-3-yl)phenyl]methanone] | 1440
Cc1cncnc1-c1cccc(C(=O)N2CCN3C[C@@H](c4ccc(F)c(Cl)c4)OC[C@@H]3C2)c1Cl [Example 35, [(3R,9aS)-3-(3-chloro-4-fluoro-phenyl)-3,4,6,7,9,9a-hexahydro-1H-pyrazino[2,1-c][1,4]oxazin-8-yl]-[2-chloro-3-(5-methylpyrimidin-4-yl)phenyl]methanone] | 1080
O=C(c1cccc(-c2cnc[nH]2)c1Cl)N1CCN2C[C@@H](c3ccc(F)c(Cl)c3)OC[C@@H]2C1 [Example 36, [(3R,9aS)-3-(3-chloro-4-fluoro-phenyl)-3,4,6,7,9,9a-hexahydro-1H-pyrazino[2,1-c][1,4]oxazin-8-yl]-[2-chloro-3-(1H-imidazol-5-yl)phenyl]methanone] | 7.4
Cc1cccnc1-c1cccc(C(=O)N2CCN3C[C@@H](c4ccc(F)c(Cl)c4)OC[C@@H]3C2)c1Cl [Example 37, [(3R,9aS)-3-(3-chloro-4-fluoro-phenyl)-3,4,6,7,9,9a-hexahydro-1H-pyrazino[2,1-c][1,4]oxazin-8-yl]-[2-chloro-3-(3-methyl-2-pyridyl)phenyl]methanone] | 277
O=C(c1cccc(-c2cn[nH]c2)c1Cl)N1CCN2C[C@@H](c3ccc(F)c(Cl)c3)OC[C@@H]2C1 [Example 38, [(3R,9aS)-3-(3-chloro-4-fluoro-phenyl)-3,4,6,7,9,9a-hexahydro-1H-pyrazino[2,1-c][1,4]oxazin-8-yl]-[2-chloro-3-(1H-pyrazol-4-yl)phenyl]methanone] | 1.9
Cc1c(-c2cccc(C(=O)N3CCN4C[C@@H](c5ccc(F)c(Cl)c5)OC[C@@H]4C3)c2Cl)cnn1C [Example 39, [(3R,9aS)-3-(3-chloro-4-fluoro-phenyl)-3,4,6,7,9,9a-hexahydro-1H-pyrazino[2,1-c][1,4]oxazin-8-yl]-[2-chloro-3-(1,5-dimethylpyrazol-4-yl)phenyl]methanone] | 49.7
Cc1nocc1-c1cccc(C(=O)N2CCN3C[C@@H](c4ccc(F)c(Cl)c4)OC[C@@H]3C2)c1Cl [Example 40, [(3R,9aS)-3-(3-chloro-4-fluoro-phenyl)-3,4,6,7,9,9a-hexahydro-1H-pyrazino[2,1-c][1,4]oxazin-8-yl]-[2-chloro-3-(3-methylisoxazol-4-yl)phenyl]methanone] | 160
Cc1n[nH]c2ccc(C(=O)N3CCN4C[C@@H](c5ccc(F)c(Cl)c5)OC[C@@H]4C3)c(Cl)c12 [Example 41, [(3R,9aS)-3-(3-chloro-4-fluoro-phenyl)-3,4,6,7,9,9a-hexahydro-1H-pyrazino[2,1-c][1,4]oxazin-8-yl]-(4-chloro-3-methyl-1H-indazol-5-yl)methanone] | 63.8
O=C(c1cccc(N2CC3(COC3)C2)c1Cl)N1CCN2C[C@@H](c3ccc(F)c(Cl)c3)OC[C@@H]2C1 [Example 42, [(3R,9aS)-3-(3-chloro-4-fluoro-phenyl)-3,4,6,7,9,9a-hexahydro-1H-pyrazino[2,1-c][1,4]oxazin-8-yl]-[2-chloro-3-(2-oxa-6-azaspiro[3.3]heptan-6-yl)phenyl]methanone] | 48.6
O=C(c1cccc(N2CCOCC2)c1Cl)N1CCN2C[C@@H](c3ccc(F)c(Cl)c3)OC[C@@H]2C1 [Example 43, [(3R,9aS)-3-(3-chloro-4-fluoro-phenyl)-3,4,6,7,9,9a-hexahydro-1H-pyrazino[2,1-c][1,4]oxazin-8-yl]-(2-chloro-3-morpholino-phenyl)methanone] | 120
O=C(c1cccc(-c2cnn[nH]2)c1Cl)N1CCN2C[C@@H](c3ccc(F)c(Cl)c3)OC[C@@H]2C1 [Example 44, [(3R,9aS)-3-(3-chloro-4-fluoro-phenyl)-3,4,6,7,9,9a-hexahydro-1H-pyrazino[2,1-c][1,4]oxazin-8-yl]-[2-chloro-3-(1H-triazol-5-yl)phenyl]methanone] | 50
COc1cccc(C(=O)N2CCN3C[C@@](O)(c4ccc(F)c(Cl)c4)OC[C@@H]3C2)c1Cl [Example 45, [(3R,9aS)-3-(3-chloro-4-fluoro-phenyl)-3-hydroxy-1,4,6,7,9,9a-hexahydropyrazino[2,1-c][1,4]oxazin-8-yl]-(2-chloro-3-methoxy-phenyl)methanone] | 19.4
COc1cccc(C(=O)N2CCN3C[C@](O)(c4ccc(F)c(Cl)c4)OC[C@H]3C2)c1Cl [Example 46, [(3S,9aR)-3-(3-chloro-4-fluoro-phenyl)-3-hydroxy-1,4,6,7,9,9a-hexahydropyrazino[2,1-c][1,4]oxazin-8-yl]-(2-chloro-3-methoxy-phenyl)methanone] | 178
O=C(c1cccc(-c2c[nH]nc2F)c1Cl)N1CCN2C[C@@H](c3ccc(F)c(Cl)c3)OC[C@@H]2C1 [Example 49, [(3R,9aS)-3-(3-chloro-4-fluoro-phenyl)-3,4,6,7,9,9a-hexahydro-1H-pyrazino[2,1-c][1,4]oxazin-8-yl]-[2-chloro-3-(3-fluoro-1H-pyrazol-4-yl)phenyl]methanone] | 1
O=C(c1cccc(-c2c[nH]nc2F)c1Cl)N1CCN2C[C@H](c3ccc(F)c(Cl)c3)OC[C@@H]2C1 [Example 50, [(3S,9aS)-3-(3-chloro-4-fluoro-phenyl)-3,4,6,7,9,9a-hexahydro-1H-pyrazino[2,1-c][1,4]oxazin-8-yl]-[2-chloro-3-(3-fluoro-1H-pyrazol-4-yl)phenyl]methanone] | 418
O=C(c1cccc(-c2c[nH]nc2F)c1Cl)N1CCN2C[C@@](O)(c3ccc(C(F)(F)F)nc3)OC[C@@H]2C1 [Example 65, [(3R,9aS)-3-hydroxy-3-[6-(trifluoromethyl)pyridin-3-yl]-1,4,6,7,9,9a-hexahydropyrazino[2,1-c][1,4]oxazin-8-yl]-[2-chloro-3-(3-fluoro-1H-pyrazol-4-yl)phenyl]methanone] | 13.8
